From article PMC10921007 (Cancer Science, 2023)

Molecular target: T1, SHCBP1 (Homo sapiens, UniProt Q8NEM2)
T1 sequence (Q8NEM2 2-672): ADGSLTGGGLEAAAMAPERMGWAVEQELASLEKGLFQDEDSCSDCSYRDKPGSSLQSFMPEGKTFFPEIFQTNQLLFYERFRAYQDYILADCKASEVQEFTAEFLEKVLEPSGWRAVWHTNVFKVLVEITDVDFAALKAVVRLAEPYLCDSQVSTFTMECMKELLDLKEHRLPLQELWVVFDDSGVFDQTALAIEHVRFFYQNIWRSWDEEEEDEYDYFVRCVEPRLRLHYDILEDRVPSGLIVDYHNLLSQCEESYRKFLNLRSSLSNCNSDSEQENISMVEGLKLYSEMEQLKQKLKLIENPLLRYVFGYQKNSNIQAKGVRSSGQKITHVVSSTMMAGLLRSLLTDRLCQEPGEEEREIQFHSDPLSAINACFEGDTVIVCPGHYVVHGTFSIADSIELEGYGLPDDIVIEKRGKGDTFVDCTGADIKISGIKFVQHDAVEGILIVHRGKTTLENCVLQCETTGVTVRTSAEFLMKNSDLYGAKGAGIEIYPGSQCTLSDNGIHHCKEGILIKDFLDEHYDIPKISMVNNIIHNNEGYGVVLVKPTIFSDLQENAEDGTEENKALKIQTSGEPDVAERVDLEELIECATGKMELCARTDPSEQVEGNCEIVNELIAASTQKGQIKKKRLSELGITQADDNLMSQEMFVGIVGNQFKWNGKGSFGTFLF
Assay: microscale thermophoresis
Assay type: binding

Kd: 1210 nM
SMILES: CN[C@@H](C)C(=O)N[C@H](C(=O)N1CCC[C@H]1C(=O)N[C@H]1c2ccccc2C[C@H]1OCC#CC#CCO[C@@H]1Cc2ccccc2[C@@H]1NC(=O)[C@@H]1CCCN1C(=O)[C@@H](NC(=O)[C@H](C)NC)C1CCCCC1)C1CCCCC1 [AZD5582]
